Measurements reported in US10052306B2 (LUC THERAPEUTICS, INC., priority 2013, dated 2018).
Where two headings read alike, the source gives them in different places.

Key:
NR1/NR2B [1] = target: NR1/NR2B (Homo sapiens (Human), UniProt Q05586+Q13224); test: Cell assay: FDSS Ca2+ influx inhibition in HEK293 cells expressing NR1/NR2B; settings: Binned Activity;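 note: Fluo-8 Ca2+ signal read on Hamamatsu FDSS 6000 after glutamate, glycine and Ca2+ challenge following 10 min compound preincubation, end/baseline fluorescence ratio compared with MK801 control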
Sequence of NR1/NR2B (Homo sapiens (Human), UniProt Q05586+Q13224) (Q13224 27-1484, other chains not shown): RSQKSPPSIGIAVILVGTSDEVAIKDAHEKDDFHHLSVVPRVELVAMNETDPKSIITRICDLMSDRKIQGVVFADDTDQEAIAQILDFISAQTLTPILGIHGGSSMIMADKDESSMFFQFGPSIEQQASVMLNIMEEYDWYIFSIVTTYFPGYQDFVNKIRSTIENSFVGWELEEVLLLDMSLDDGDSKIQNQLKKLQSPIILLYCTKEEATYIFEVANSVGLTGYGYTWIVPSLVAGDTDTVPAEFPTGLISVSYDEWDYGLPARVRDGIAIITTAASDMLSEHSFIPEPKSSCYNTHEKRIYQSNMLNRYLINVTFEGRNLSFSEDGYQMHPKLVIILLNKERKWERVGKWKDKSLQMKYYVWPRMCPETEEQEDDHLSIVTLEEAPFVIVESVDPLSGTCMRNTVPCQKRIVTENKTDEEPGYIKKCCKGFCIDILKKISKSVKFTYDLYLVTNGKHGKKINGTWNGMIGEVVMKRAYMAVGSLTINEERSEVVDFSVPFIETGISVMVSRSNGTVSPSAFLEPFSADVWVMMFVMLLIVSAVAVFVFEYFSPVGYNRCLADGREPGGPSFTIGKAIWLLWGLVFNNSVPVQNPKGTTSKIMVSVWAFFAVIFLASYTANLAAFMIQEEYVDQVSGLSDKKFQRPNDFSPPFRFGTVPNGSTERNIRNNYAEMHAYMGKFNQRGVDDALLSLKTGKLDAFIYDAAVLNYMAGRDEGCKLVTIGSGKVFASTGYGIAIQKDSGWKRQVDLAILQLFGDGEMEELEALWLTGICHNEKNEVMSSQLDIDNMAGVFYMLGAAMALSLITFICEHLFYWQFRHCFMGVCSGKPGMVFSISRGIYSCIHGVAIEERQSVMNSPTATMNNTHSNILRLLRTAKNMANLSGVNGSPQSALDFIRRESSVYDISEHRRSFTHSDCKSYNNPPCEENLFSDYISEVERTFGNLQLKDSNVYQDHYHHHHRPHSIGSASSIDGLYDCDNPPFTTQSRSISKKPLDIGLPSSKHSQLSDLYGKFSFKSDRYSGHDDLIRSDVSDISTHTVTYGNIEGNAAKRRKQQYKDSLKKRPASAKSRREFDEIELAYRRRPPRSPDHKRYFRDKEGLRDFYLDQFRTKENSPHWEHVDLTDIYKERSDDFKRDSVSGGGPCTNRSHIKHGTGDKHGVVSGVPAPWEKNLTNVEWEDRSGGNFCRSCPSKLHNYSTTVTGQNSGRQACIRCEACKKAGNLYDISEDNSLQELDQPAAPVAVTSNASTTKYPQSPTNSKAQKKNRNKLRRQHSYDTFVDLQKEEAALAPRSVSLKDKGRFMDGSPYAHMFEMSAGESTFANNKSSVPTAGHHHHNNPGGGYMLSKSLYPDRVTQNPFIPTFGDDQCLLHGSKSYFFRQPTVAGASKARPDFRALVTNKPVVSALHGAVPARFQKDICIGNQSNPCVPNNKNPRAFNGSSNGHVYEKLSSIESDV

NR1/NR2B [2] = target: NR1/NR2B (Homo sapiens (Human), UniProt Q13224); test: as above; settings: read-out: NR2B NAM IC50
Sequence of NR1/NR2B (Homo sapiens (Human), UniProt Q13224) (Q13224 27-1484, other chains not shown): as above

[3] = HEK293 cells expressing NR1/NR2B, Ca2+ influx, binned NR2B NAM IC50
[4] = HEK293 cells expressing NR1/NR2B, Ca2+ influx

Row | Structure (SMILES) | IC50 (NR1/NR2B [1]; [3]) [µM] | IC50 (NR1/NR2B [2]; [4]) [µM] | IC50 (NR1/NR2B [1]) [µM] | IC50 (NR1/NR2B [2]) [µM]
1 | O=C(Nc1cccc(C(F)(F)F)c1)N1C[C@@H]2C[C@@](O)(c3ccccc3)C[C@@H]2C1 [Example 5, 5-hydroxy-5-phenyl-N-[3-(trifluoromethyl)phenyl]-octahydrocyclopenta[c] pyrrole-2-carboxamide] | > 10 | 10 | – | –
2 | CC(C(=O)c1ccc(O)cc1)N1C[C@H]2C[C@@H](CCc3ccccc3)C[C@H]2C1 (stereo partly drawn) [Example 325, 1-(4-hydroxyphenyl)-2-((3aR,5r,6aS)-5-phenethylhexa-hydrocyclo-penta[c]pyrrol-2(1H)-yl)propan-1-one] | – | – | 0.1 to 1 | 0.192
3 | O=C(CN1C[C@@H]2CN(Cc3ccccc3)C[C@@H]2C1)c1ccc(O)c(F)c1 [Example 340, 2-(5-benzylhexahydropyrrolo [3,4-c]pyrrol-2(1H)-yl)-1-(3-fluoro-4-hydroxyphenyl)ethanone] | > 10 | 10 | – | –
4 | O=C(CN1C[C@@H]2C[C@](O)(Cc3ccccc3)C[C@@H]2C1)c1ccc(O)cc1 [Example 290, 2-((3aR,5r,6aS)-5-benzyl-5-hydroxyhexahydrocyclo-penta[c]pyrrol-2(1H)-yl)-1-(4-hydroxyphenyl)ethanone] | < 0.1 | 0.0766 | – | –
5 | COc1ccc(-c2cccc(C(=O)CN3C[C@@H]4C[C@@](O)(Cc5ccccc5)C[C@@H]4C3)c2)cc1 [Example 263, 2-((3aR,5r,6aS)-5-benzyl-5-hydroxyhexahydrocyclo-penta[c]pyrrol-2(1H)-yl)-1-(4′-methoxy-[1,1′-biphenyl]-3-yl)ethanone] | > 10 | 10 | – | –
6 | Cc1ccc(NC(=O)N2C[C@@H]3C[C@@](O)(Cc4ccccc4)C[C@@H]3C2)cc1 [Example 125, (3aR,5r,6aS)-5-benzyl-5-hydroxy-N-(p-tolyl) hexahydrocyclopenta [c]pyrrole-2(1H)-carboxamide] | > 10 | 10 | – | –
7 | Cc1ccc(NC(=O)N2C[C@@H]3C[C@@](O)(c4ccc(F)cc4)C[C@@H]3C2)cc1 [Example 36, 5-(4-fluorophenyl)-5-hydroxy-N-(4-methylphenyl)-octahydrocyclopenta[c] pyrrole-2-carboxamide] | > 10 | 10 | – | –
8 | Cc1cc(C)cc(C[C@]2(O)C[C@H]3CN(CC(=O)c4ccc(O)cc4)C[C@H]3C2)c1 [Example 212, 2-[(3aR,5R,6aS)-5-[(3,5-dimethylphenyl)methyl]-5-hydroxy-octahydrocyclopenta[c]pyrrol-2-yl]-1-(4-hydroxyphenyl)ethan-1-one] | > 10 | 10 | – | –
9 | COc1ccccc1NC(=O)N1C[C@@H]2C[C@@](O)(Cc3ccccc3)C[C@@H]2C1 [Example 128, (3aR,5r,6aS)-5-benzyl-5-hydroxy-N-(2-meth-oxyphenyl)hexahydro-cyclopenta[c]pyrrole-2(1H)-carboxamide] | > 10 | 10 | – | –
10 | O=C(CN1C[C@@H]2C[C@@](O)(Cc3ccccc3)C[C@@H]2C1)c1cccc(-c2cccnc2)c1 [Example 272, 2-((3aR,5r,6aS)-5-benzyl-5-hydroxyhexahydrocyclo-penta[c]pyrrol-2(1H)-yl)-1-(3-(pyridin-3-yl)phenyl)ethanone] | > 10 | 10 | – | –
11 | CC(C)(C)OC(=O)Nc1ccc(C(=O)CN2C[C@@H]3C[C@@](O)(Cc4ccccc4)C[C@@H]3C2)cn1 [Example 284, tert-butyl (5-(2-(5-benzyl-5-hydroxyhexahydrocyclo-penta[c]pyrrol-2(1H)-yl)acetyl)pyridin-2-yl)carbamate] | > 10 | 10 | – | –
12 | COc1ccc(NC(=O)N2C[C@@H]3C[C@@](O)(c4ccc(C#N)cc4)C[C@@H]3C2)cc1 [Example 2, 5-(4-cyanophenyl)-5-hydroxy-N-(4-methoxyphenyl)-octahydrocyclopenta[c] pyrrole-2-carboxamide] | > 10 | 10 | – | –
